Patent US20160361288A1, “PHARMACEUTICAL COMPOSITIONS FOR PREVENTING OR TREATING DIABETIC N[…] ACTIVITY INHIBITOR OF TENC1” (POSTECH ACADEMY-INDUSTRY FOUNDATION, priority 2015, published 2016)

Columns and labels:
TENC1 = biological target: T1, TENC1 (Homo sapiens, UniProt Q63HR2, P1246L); assay: Malachite Green assay screening for TENC1 inhibitor (PTPase activity of TENC1); assay type: biochemical; conditions: TENC1 protein isolated from cells, compared with control; FIG. 8
T1 construct: made in house; host or cells: cells (type not specified)
T1 sequence (Q63HR2 1-1409 P1246L): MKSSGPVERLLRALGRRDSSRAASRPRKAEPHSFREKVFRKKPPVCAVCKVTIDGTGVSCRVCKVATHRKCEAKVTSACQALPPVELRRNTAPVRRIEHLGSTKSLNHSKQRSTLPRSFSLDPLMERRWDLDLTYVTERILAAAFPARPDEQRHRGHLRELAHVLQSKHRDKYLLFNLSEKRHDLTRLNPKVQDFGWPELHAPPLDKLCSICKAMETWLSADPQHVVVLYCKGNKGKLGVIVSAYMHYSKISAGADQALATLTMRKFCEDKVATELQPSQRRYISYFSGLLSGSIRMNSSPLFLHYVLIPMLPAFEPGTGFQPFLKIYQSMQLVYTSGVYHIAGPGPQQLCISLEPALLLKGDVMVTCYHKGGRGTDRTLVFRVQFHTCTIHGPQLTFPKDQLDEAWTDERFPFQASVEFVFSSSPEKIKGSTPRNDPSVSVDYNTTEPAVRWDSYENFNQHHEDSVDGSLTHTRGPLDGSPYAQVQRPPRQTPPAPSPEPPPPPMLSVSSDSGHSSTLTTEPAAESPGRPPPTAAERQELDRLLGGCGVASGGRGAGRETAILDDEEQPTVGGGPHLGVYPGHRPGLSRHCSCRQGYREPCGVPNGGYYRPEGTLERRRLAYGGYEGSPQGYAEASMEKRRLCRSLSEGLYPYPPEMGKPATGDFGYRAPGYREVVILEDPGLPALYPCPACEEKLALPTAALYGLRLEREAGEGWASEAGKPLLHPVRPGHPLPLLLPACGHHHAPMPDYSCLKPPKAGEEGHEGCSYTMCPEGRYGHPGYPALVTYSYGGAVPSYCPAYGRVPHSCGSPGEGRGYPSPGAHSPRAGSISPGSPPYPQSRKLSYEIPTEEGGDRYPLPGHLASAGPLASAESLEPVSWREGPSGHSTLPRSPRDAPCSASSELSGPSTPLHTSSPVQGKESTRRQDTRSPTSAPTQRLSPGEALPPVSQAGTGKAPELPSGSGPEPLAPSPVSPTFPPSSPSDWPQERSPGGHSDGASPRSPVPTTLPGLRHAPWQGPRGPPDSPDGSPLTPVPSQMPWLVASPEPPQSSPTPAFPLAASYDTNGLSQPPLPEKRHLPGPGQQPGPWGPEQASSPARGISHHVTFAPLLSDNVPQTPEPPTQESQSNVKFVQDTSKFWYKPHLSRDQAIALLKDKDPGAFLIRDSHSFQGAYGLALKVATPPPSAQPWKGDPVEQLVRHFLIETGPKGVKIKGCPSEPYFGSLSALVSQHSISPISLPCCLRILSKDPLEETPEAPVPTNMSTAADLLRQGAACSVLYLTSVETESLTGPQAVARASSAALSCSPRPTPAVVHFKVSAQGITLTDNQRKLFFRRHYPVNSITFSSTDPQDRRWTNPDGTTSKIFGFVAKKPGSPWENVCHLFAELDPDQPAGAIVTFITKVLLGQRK
Procedure: According to the above results, it was confirmed that TENC1 overexpressed in a high glucose environment known as a leading cause of diabetic nephropathy inhibits phosphorylation of nephrin caused by dephosphorylation, and induces hypertrophy of the podocyte cell line. For this reason, to inhibit the hypertrophy of the podocyte cell line, screening was performed through a Malachite Green assay for finding a TENC1 inhibitor.
TENC1 protein isolated from the cells and each of the natural product library candidate compounds were put together for a predetermined time, and the PTPase activity of TENC1 was measured. […] Here, as a positive control, a PTPase inhibitor, sodium vanadate (Na3VO4; NAV) was used. Since there were almost no molecules left in the test tube, the method has a higher probability of discovering a direct regulator, compared with a cellular-level screening method.

differentiated podocyte = assay: Filtration function of differentiated podocyte under high glucose (protein quantification); assay type: cell-based; conditions: high glucose condition of 30 mmol/L vs normal glucose 5 mmol/L; FIG. 11B
nephrin = assay: Nephrin phosphorylation in kidney tissue of db/db mouse (immunoprecipitation); assay type: in vivo; conditions: 300 mg/kg orally daily for 2 weeks, FIG. 12
Procedure: (§1) An effect of DHTS, which is the representative material of the TENC1 inhibitors found through the screening described in Example 5, was identified using a diabetic nephropathy animal model. To this end, as a diabetic nephropathy animal model, a type II diabetic model, that is, a db/db mouse was used, and as a control, a db/m mouse was used. 10 week-old male db/m and db/db mice were divided into three groups including a group in which a vehicle was administered to a db/m mouse, a group in which a vehicle was administered to a db/db mouse, and a group in which 300 mg/kg of DHTS was administered to a db/db mouse for experiments, and the vehicle or drug was orally administered daily for 2 weeks according to each condition. As the vehicle, 1% carboxymethyl cellulose was used.
(§2) Further, to investigate whether the above result is obtained by inhibiting TENC1-induced nephrin dephosphorylation and increased mTORC1 signaling, immunoprecipitation and western blotting were performed with a kidney tissue sample extracted from a mouse.

db/db mouse = assay: Diabetic nephropathy animal model, db/db mouse (fasting serum glucose, kidney weight, proteinuria); assay type: in vivo; conditions: 300 mg/kg orally daily for 2 weeks
Procedure: as §1
First, after the experiment described above, blood was taken from a mouse to measure a fasting serum glucose level. As a result, referring to FIG. 9, it was confirmed that the fasting serum glucose level was not decreased by the administration of DHTS for two weeks.
Therefore, it was confirmed that DHTS can improve the renal hypertrophy.

mTORC1 signaling = mTORC1 signaling (S6K phosphorylation) in kidney tissue of db/db mouse (western blotting); assay type: in vivo; conditions: 300 mg/kg orally daily for 2 weeks, FIG. 13
Procedure: as §1, §2

In the case of `Cc1cccc2c3c(ccc12)C1=C(C(=O)C3=O)[C@@H](C)CO1` [DHTS, (1R)-1,6-dimethyl-1,2-dihydronaphtho[1,2-g][1]benzofuran-10,11-dione], the “inhibitory effect on the PTPase activity of TENC1” value (TENC1) was “inhibitory effect”, the “filtration function of the podocyte” value (differentiated podocyte) was “improved to a level similar to the result obtained under a the normal glucose condition” and the “nephrin phosphorylation in kidney tissue” value (nephrin) was “recovered”. For the same compound, the “fasting serum glucose level” value (db/db mouse; FIG. 9) was “not decreased”, the “proteinuria (albumin ELISA)” value (db/db mouse; compared with vehicle db/db mouse, FIG. 11A) was “significantly reduced” and the “kidney weight (renal hypertrophy; ratio of kidney weight to body weight)” value (db/db mouse; vs vehicle db/db and db/m, FIG. 10) was “such an increase was not shown”. The “S6K phosphorylation (pS6K) in kidney tissue” value (mTORC1 signaling) was “effectively inhibited”.
